How the values were obtained:
[1] = target: IL-17A(FLAG-Tagged): IL-17RA(His-Tagged) (Homo sapiens, UniProt Q16552, K93Q); test: IL-17A(FLAG-Tagged): IL-17RA(His-Tagged) Binding Disruption Eu-HTRF Assay; details: disruption of IL-17A/IL-17RA binding; simple average if tested more than once
Description: IL-17A(FLAG-Tagged): IL-17RA(His-Tagged) Binding Disruption Eu-HTRF Assay
An antibody directed against the FLAG tag of IL-17A (SEQ ID NO: 1) is labeled with the HTRF donor chromophore (Europium-cryptate). IL-17A is present as a dimer that is “locked into” this quaternary structure due to the formation of loop-spanning […] disulfide bridges. The construct of IL-17RA used in the assay excludes the […] portion of the receptor and is fused to a C-terminal 10×His tag (SEQ ID NO:2). An antibody directed against the His tag of the IL-17RA chimera is labeled with the HTRF acceptor chromophore (“D2”). The fluorescence-resonance energy transfer (FRET) depends on the vicinity of the donor chromophore to the acceptor, and interruption of the binding between the IL-17A and IL-17RA causes the reduction/loss of FRET. Therefore, this assay allows to evaluate the compound effect on the binding IL-17A and IL-17RA by monitoring the fluorescence intensity of donor vs acceptor. The assay is run as described below.
40 nL of 2-fold serial diluted compound solution for total 22 dilution points is added into each well of a 1536-well, white, low-volume, non-binding plate (Greiner #782904), then 2 μL of FLAG tagged IL-17A at 2× final concentration (2.5 nM) in solution of PBS+0.01% Triton-X100 is added to each well. The assay plate is briefly centrifuged then incubated for 1 h at rt. A mixed solution is prepared containing 2×5 nM 10HIS×IL-17RA, 2×2.5 nM Eu-anti-FLAG (CISBIO), 2×5 nM D2-anti-HIS (CISBIO) in PBS+0.01% Triton-X100+200 mM Potassium Fluoride (Sigma 60238) and 2 μL of mix is added to each well of the assay plate. The plate is briefly centrifuged then incubated for 2 h at rt. The HTRF intensities at the wavelength of donor (620 nm) and acceptor (665 nm) are measured using BMG Pherastar. The ratio between intensities at two wavelengths is calculated and plotted against the compound concentration and the data is fitted to a one-site competition model to yield IC50 of the compound.

[2] = tested on: IL-17A-induced G-CSF production in human normal keratinocytes (NHK); test: NHK Assay: IL-17A-induced G-CSF production in human normal keratinocytes; type: cell-based; details: IL-17A 5 ng/mL, 24 h, 5% FBS, simple average if tested more than once
Procedure: IL-17A acts directly on keratinocytes through binding to dimeric receptor IL-17RA/RC and drives the production of a number of inflammatory mediators known to be elevated in psoriasis lesional tissue. IL-17A small molecule inhibitors that block the IL-17A to interact with IL-17R would inhibit the IL-17A signaling in its targeted cells such as keratinocytes. The compound functional activity is evaluated for its impact on IL-17A-induced G-CSF production in human normal keratinocytes (NHK).
Adult normal human keratinocytes are cultured in keratinocyte growth medium (Lonza) in a flask till reaching ˜ 90% confluence, then cells are transferred to a 384-well plate at density of 3000-4000 cell/well. Recombinant human IL-17A (Gibco PHC9174) is pre-incubated with titrated compound or DMSO for 1 h at rt then added to the cell culture plate. The final concentration of IL-17A is 5 ng/mL and DMSO is 0.2%, in the culture containing 5% FBS. Cells are cultured/treated for 24 h at 37° C. Supernatants are collected and G-CSF production is measured through HTRF technology using Human G-CSF Kit (CisBio). G-CSF concentration was extrapolated from the standard curve and IC50 is determined using GraphPad Prism. Cell viability is also evaluated using CellTiter-Glo kit (Promega) and effect of compound on cell viability is compared to DMSO control.

UniProt Q16552, sequence (Q16552 with tags, fused parts or gaps K93Q): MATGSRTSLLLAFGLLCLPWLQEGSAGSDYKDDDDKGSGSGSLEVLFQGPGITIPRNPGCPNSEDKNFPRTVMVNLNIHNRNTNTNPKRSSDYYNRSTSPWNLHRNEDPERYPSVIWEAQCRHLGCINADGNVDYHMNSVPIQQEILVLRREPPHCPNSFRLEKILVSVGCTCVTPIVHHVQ

Row | SMILES | IC50 [1] [nM] | IC50 [2] [nM] | IC50 ([2]; Homo sapiens, Keratinocyte) [nM]
1 | CC(CC(=O)N[C@@H](c1ccn2cc([C@@H](NC(=O)c3ncnn3CC3CC3)C3CCC(F)(F)CC3)nc2n1)C1CC1)C(F)(F)F (single isomer, unassigned) [Example 20, N—((S)-(7-((R)-Cyclopropyl((R*)-4,4,4-trifluoro-3-methylbutanamido)methyl)imidazo[1,2-a]pyrimidin-2-yl)(4,4-difluorocyclohexyl)methyl)-1-(cyclopropylmethyl)-1H-1,2,4-triazole-5-carboxamide] | 470 | 2800 | 
2 | Cc1c(C(=O)N[C@H](c2cn3ccc(C(NC(=O)CCC(F)(F)F)C4CC4)nc3n2)C2CCC(F)(F)CC2)cnn1CCC(F)(F)F (single isomer, unassigned) [Example 38, N—((S)-(7-((S*)-Cyclopropyl(4,4,4-trifluorobutanamido)methyl)imidazo[1,2-a]pyrimidin-2-yl)(4,4-difluorocyclohexyl)methyl)-5-methyl-1-(3,3,3-trifluoropropyl)-1H-pyrazole-4-carboxamide] | 890 | 930 | 
3 | Cc1c(C(=O)N[C@H](c2cn3ccc(C(NC(=O)CCC(F)(F)F)C4CC4)nc3n2)C2CCC(F)(F)CC2)cnn1CCC(F)(F)F (single isomer, unassigned) [Example 39, N—((S)-(7-((R*)-Cyclopropyl(4,4,4-trifluorobutanamido)methyl)imidazo[1,2-a]pyrimidin-2-yl)(4,4-difluorocyclohexyl)methyl)-5-methyl-1-(3,3,3-trifluoropropyl)-1H-pyrazole-4-carboxamide] | 13000 | ~20000 | 
4 | O=C(CCC(F)(F)F)NC(c1ccn2cc([C@@H](NC(=O)c3cnn(CCC(F)(F)F)n3)C3CCC(F)(F)CC3)nc2n1)C1CC1 (single isomer, unassigned) [Example 40, N—((S)-(7-((S*)-Cyclopropyl(4,4,4-trifluorobutanamido)methyl)imidazo[1,2-a]pyrimidin-2-yl)(4,4-difluorocyclohexyl)methyl)-2-(3,3,3-trifluoropropyl)-2H-1,2,3-triazole-4-carboxamide] | 310 | 360 | 
5 | O=C(CCC(F)(F)F)NC(c1ccn2cc([C@@H](NC(=O)c3cnn(CCC(F)(F)F)n3)C3CCC(F)(F)CC3)nc2n1)C1CC1 (single isomer, unassigned) [Example 41, N—((S)-(7-((R*)-Cyclopropyl(4,4,4-trifluorobutanamido)methyl)imidazo[1,2-a]pyrimidin-2-yl)(4,4-difluorocyclohexyl)methyl)-2-(3,3,3-trifluoropropyl)-2H-1,2,3-triazole-4-carboxamide] | 2400 | 2500 | 
6 | O=C(CCC(F)(F)F)NC(c1ccn2cc([C@@H](NC(=O)c3ccn(CCC(F)(F)F)n3)C3CCC(F)(F)CC3)nc2n1)C1CC1 (single isomer, unassigned) [Example 42, N—((S)-(7-((S*)-Cyclopropyl(4,4,4-trifluorobutanamido)methyl)imidazo[1,2-a]pyrimidin-2-yl)(4,4-difluorocyclohexyl)methyl)-1-(3,3,3-trifluoropropyl)-1H-pyrazole-3-carboxamide] | 480 | 520 | 
7 | O=C(CCC(F)(F)F)NC(c1ccn2cc([C@@H](NC(=O)c3ccn(CCC(F)(F)F)n3)C3CCC(F)(F)CC3)nc2n1)C1CC1 (single isomer, unassigned) [Example 43, N—((S)-(7-((R*)-Cyclopropyl(4,4,4-trifluorobutanamido)methyl)imidazo[1,2-a]pyrimidin-2-yl)(4,4-difluorocyclohexyl)methyl)-1-(3,3,3-trifluoropropyl)-1H-pyrazole-3-carboxamide] | 5700 | ~20000 | 
8 | Cn1nccc1C(=O)N[C@H](c1cn2ccc(C(NC(=O)CCC(F)(F)F)C3CC3)nc2n1)C1CCC(F)(F)CC1 (single isomer, unassigned) [Example 44, N—((S)-(7-((S*)-Cyclopropyl(4,4,4-trifluorobutanamido)methyl)imidazo[1,2-a]pyrimidin-2-yl)(4,4-difluorocyclohexyl)methyl)-1-methyl-1H-pyrazole-5-carboxamide] | 220 | 170 | 
9 | Cn1nccc1C(=O)N[C@H](c1cn2ccc(C(NC(=O)CCC(F)(F)F)C3CC3)nc2n1)C1CCC(F)(F)CC1 (single isomer, unassigned) [Example 45, N—((S)-(7-((R*)-Cyclopropyl(4,4,4-trifluorobutanamido)methyl)imidazo[1,2-a]pyrimidin-2-yl)(4,4-difluorocyclohexyl)methyl)-1-methyl-1H-pyrazole-5-carboxamide] | 2900 | 2100 | 
10 | CC(C)n1nccc1C(=O)N[C@H](c1cn2ccc(C(NC(=O)CCC(F)(F)F)C3CC3)nc2n1)C1CCC(F)(F)CC1 (single isomer, unassigned) [Example 46, N—((S)-(7-((S*)-Cyclopropyl(4,4,4-trifluorobutanamido)methyl)imidazo[1,2-a]pyrimidin-2-yl)(4,4-difluorocyclohexyl)methyl)-1-isopropyl-1H-pyrazole-5-carboxamide] | 2600 | 2600 | 
11 | CC(C)n1nccc1C(=O)N[C@H](c1cn2ccc(C(NC(=O)CCC(F)(F)F)C3CC3)nc2n1)C1CCC(F)(F)CC1 (single isomer, unassigned) [Example 47, N—((S)-(7-((R*)-Cyclopropyl(4,4,4-trifluorobutanamido)methyl)imidazo[1,2-a]pyrimidin-2-yl)(4,4-difluorocyclohexyl)methyl)-1-isopropyl-1H-pyrazole-5-carboxamide] | 410 | 120 | 
12 | O=C(CCC(F)(F)F)NC(c1ccn2cc([C@@H](NC(=O)c3cnn(CCC(F)(F)F)c3)C3CCC(F)(F)CC3)nc2n1)C1CC1 (single isomer, unassigned) [Example 49, N—((S)-(7-((S*)-Cyclopropyl(4,4,4-trifluorobutanamido)methyl)imidazo[1,2-a]pyrimidin-2-yl)(4,4-difluorocyclohexyl)methyl)-1-(3,3,3-trifluoropropyl)-1H-pyrazole-4-carboxamide] | 500 |  | 740
13 | Cc1nonc1C(=O)N[C@H](c1cn2ccc([C@H](NC(=O)CC3CC3(F)F)C3CC3)nc2n1)C1CCC(F)(F)CC1 (single isomer, unassigned) [Example 51, N—((S)-(7-((R)-Cyclopropyl(2-((S*)-2,2-difluorocyclopropyl)acetamido)methyl)imidazo[1,2-a]pyrimidin-2-yl)(4,4-difluorocyclohexyl)methyl)-4-methyl-1,2,5-oxadiazole-3-carboxamide] | 360 |  | 2000
14 | Cc1nonc1C(=O)N[C@H](c1cn2ccc([C@H](NC(=O)CC3CC3(F)F)C3CC3)nc2n1)C1CCC(F)(F)CC1 (single isomer, unassigned) [Example 52, N—((S)-(7-((R)-Cyclopropyl(2-((R*)-2,2-difluorocyclopropyl)acetamido)methyl)imidazo[1,2-a]pyrimidin-2-yl)(4,4-difluorocyclohexyl)methyl)-4-methyl-1,2,5-oxadiazole-3-carboxamide] | 680 | 2800 | 
15 | Cc1conc1C(=O)N[C@H](c1cn2ccc([C@H](NC(=O)CC3CC3(F)F)C3CC3)nc2n1)C1CCC(F)(F)CC1 (single isomer, unassigned) [Example 53, N—((S)-(7-((R)-Cyclopropyl(2-((S*)-2,2-difluorocyclopropyl)acetamido)methyl)imidazo[1,2-a]pyrimidin-2-yl)(4,4-difluorocyclohexyl)methyl)-4-methylisoxazole-3-carboxamide] | 490 |  | 2300

From patent publication US12559496B2, “Imidazopyrimidines as modulators of IL-17” (Janssen Pharmaceutica NV, priority 2020, dated 2026)
